Where “and” joins values, the source holds several entries; their conditions need not be identical. Equal values may be shown once. Entries after “also recorded” stand apart in the source; their conditions may differ.
Columns and labels:
[1] = Radioactive metabolite profiling in pooled plasma, urine and feces; assay type: in vivo, human
Method: Moreover, four plasma samples at 1 h, 4 h, 48 h, and 96 h were obtained by mixing them in equal volumes. Urine samples were pooled across individuals at an equal volume to obtain one pooled sample within each time period of 0–24 h, 24–48 h, and 48–96 h. Fecal samples (0–192 h) were pooled at the same weight percentages across collection intervals for each subject. Moreover, fecal samples were pooled across individuals at an equal weight to obtain one pooled sample within each time period of 0–72 h, 72–120 h, and 120–192 h. Plasma, urine, and fecal homogenates were extracted and concentrated using organic solvents, and then the redissolved solutions were used for metabolite profile analysis. The plasma, urine, and fecal extracts were separated on HPLC columns, and the HPLC flow fractions were collected in Deepwell LumaPlateTM-96 plates at 15 s/fraction using an automatic fraction collector. The radioactivity of each fraction was quantified using a microplate detector with ARC® Convert and Evaluation software (3.0.2.379) and transformed to obtain the radioactive metabolite spectra. The radioactive metabolite spectra of each sample were integrated to acquire the peak area of each radioactive metabolite peak, the proportion of each spectral peak to the total radioactive intensity of the sample, and the proportion of the radioactivity of the major metabolites to the TRA in the corresponding blood, urine, and fecal samples. Therefore, the ratio of metabolites' concentrations to the total drug exposure (AUC) in the plasma and the ratio of each metabolite's level to the dose administered in the urine and feces were calculated. Liquid chromatography with low-energy radionuclide detection and mass spectrometry was used to identify the main metabolites in human plasma, urine, and fecal samples and to identify the possible biotransformation pathways of IBI351 in these samples.

[2] = Safety analysis: adverse events and laboratory tests; assay type: in vivo, human; details: for Urea: reference range 3.1–8.0; for Urea / TBIL / ALT / GGT / AST / Cr: listed as [14C]IBI351; for TBIL: reference range 5.1–19.0; for ALT: reference range 9.0–50.0; for GGT: reference range 10.0–60.0; for AST: reference range 15.0–40.0; for Cr: reference range 57.0–97.0; for Safety and tolerability: vital signs, physical indexes, electrocardiogram
Method: Safety was evaluated based on the adverse events that occurred during the trial. Normal/abnormal changes in physical examination, vital signs, laboratory tests, electrocardiogram, and other results were evaluated before and after the trial.

[3] = D3, individual subjects, rows in order 01101–01106
[4] = D8, individual subjects, rows in order 01101–01106
[5] = follow-up visit, individual subjects, rows in order 01101–01106
[6] = single oral 600 mg/150 μCi, listed as [^14C]IBI351

In the case of `C=CC(=O)N1CCN2c3c(c(=O)n(-c4c(C)ccnc4C(C)C)c4nc(-c5c(O)cccc5F)c(Cl)cc34)N(C)C(=O)C2C1` (stereo not drawn) [IBI351], the “Feces (0–192 h) % of dose” value ([1]; pooled feces 0–192 h) is reported as 9.71 % of dose, the “Plasma (0–144 h) % of AUC (share of total plasma radioactivity exposure)” value ([1]; pooled plasma 0–144 h) is reported as 4.54 % of AUC and the “Plasma (0–144 h) Metabolite/parent drug (%)” value ([1]; pooled plasma 0–144 h, relative to the parent drug) is reported as 100.00%. For the same molecule, the “Urine (0–96 h) % of dose” value ([1]; pooled urine 0–96 h) was 1.16 % of dose, the “Feces+urine % of dose” value ([1]; sum of feces 0–192 h and urine 0–96 h) was 10.87 % of dose and the Urea [2, 3] was 4.3 mmol/L and 4.9 mmol/L and 5.1 mmol/L and 4.5 mmol/L and 4.0 mmol/L and 5.5 mmol/L. The TBIL [2, 3] was 6.4 µmol/L and 12.2 µmol/L and 7.7 µmol/L and 10.0 µmol/L and 11.5 µmol/L and 10.4 µmol/L, the ALT ([2]; D3, individual subjects, 01101, 01102–01106) was 11.4 U/L and 10.3 U/L and 11.0 U/L and 14.4 U/L and 29.0 U/L and 17.0 U/L and the GGT [2, 3] was 9.9 U/L and 17.1 U/L and 19.1 U/L and 33.0 U/L and 14.4 U/L and 20.1 U/L. For the same molecule, the AST [2, 3] was 18.5 U/L and 11.5 U/L and 10.9 U/L and 16.4 U/L and 23.6 U/L and 19.0 U/L, the Cr [2, 3] was 73.1 µmol/L and 69.5 µmol/L and 66.4 µmol/L and 69.2 µmol/L and 76.5 µmol/L and 78.7 µmol/L and the Urea [2, 4] was 3.8 mmol/L and 5.4 mmol/L and 5.6 mmol/L and 4.2 mmol/L and 4.5 mmol/L and 5.1 mmol/L. For the same molecule, the TBIL [2, 4] was 8.1 µmol/L and 14.2 µmol/L and 4.5 µmol/L and 8.0 µmol/L and 15.1 µmol/L and 13.5 µmol/L, the ALT [2, 4] was 18.3 U/L and 12.1 U/L and 10.5 U/L and 19.8 U/L and 30.9 U/L and 17.9 U/L and the GGT [2, 4] was 12.1 U/L and 25.8 U/L and 16.8 U/L and 33.8 U/L and 17.0 U/L and 19.2 U/L. The AST [2, 4] was 24.1 U/L and 14.2 U/L and 15.8 U/L and 15.2 U/L and 22.2 U/L and 17.7 U/L, the Cr [2, 4] was 69.6 µmol/L and 73.7 µmol/L and 64.2 µmol/L and 72.0 µmol/L and 76.4 µmol/L and 84.3 µmol/L and the “Severity of TEAEs” value ([2]; all TEAEs, single oral 600 mg/150 μCi) was “grade 1”. The Urea [2, 5] was 3.5 mmol/L and 3.8 mmol/L and 5.6 mmol/L and 4.7 mmol/L and 4.1 mmol/L and 6.1 mmol/L, the TBIL [2, 5] was 8.1 µmol/L and 12.3 µmol/L and 4.5 µmol/L and 7.0 µmol/L and 8.8 µmol/L and the ALT [2, 5] was 9.5 U/L and 20.5 U/L and 8.0 U/L and 19.4 U/L and 21.4 U/L and 14.7 U/L. The GGT [2, 5] was 13.4 U/L and 25.8 U/L and 22.0 U/L and 32.9 U/L and 16.9 U/L and 15.9 U/L, the AST [2, 5] was 15.7 U/L and 14.2 U/L and 16.9 U/L and 11.0 U/L and 19.4 U/L and 17.6 U/L and the Cr [2, 5] was 72.8 µmol/L and 73.1 µmol/L and 64.2 µmol/L and 71.4 µmol/L and 66.8 µmol/L and 92.4 µmol/L. The “Subjects experiencing treatment-emergent adverse events (TEAEs)” value ([2]; four of six subjects, TEAEs unrelated to [14C]IBI351, single oral 600 mg/150 μCi) was 66.7%, the “TEAE: diarrhea” value ([2]; share of six subjects, grade 1) was 33.3% and the “TEAE: elevated blood triglycerides” value ([2]; share of six subjects, grade 1) was 33.3%. For the same molecule, the “TEAE: positive fecal occult blood” value ([2]; share of six subjects, grade 1) was 16.7%, the “TEAEs leading to death” value ([2]; single oral 600 mg/150 μCi) was “no TEAEs leading to death” and the Serious adverse events [2, 6] was “no serious adverse events; also recorded: no severe adverse events”. The “TEAEs of CTCAE grade ≥ 3” value [2, 6] was “no TEAEs with Common Terminology Criteria for Adverse Events (CTCAE) grade ≥ 3; also recorded: no TEAEs of CTCAE grade ≥ 3”, the Safety and tolerability ([2]; single oral 600 mg/150 μCi) was “generally safe and well tolerated” and the Safety and tolerability [2, 6] was “good safety and tolerance”.
